# Species: Rattus norvegicus
# Experiment: DrugMatrix - Regimen: Daily Repeat
# Assay type: toxicity, organism-based, Sprague-Dawley
# Set-up: regimen Daily Repeat, gender Male, age 6-8 weeks
# Conditions: in vivo, po, route oral GAVAGE, vehicle .5 % CMC; for ABSOLUTE BASOPHIL / ABSOLUTE EOSINOPHIL / ABSOLUTE LYMPHOCYTE / ABSOLUTE MONOCYTE / ABSOLUTE SEGMENTED NEUTROPHIL / BASOPHIL / EOSINOPHIL / ERYTHROCYTE COUNT / HEMATOCRIT / HEMOGLOBIN / LEUKOCYTE COUNT / LYMPHOCYTE / MEAN CORPUSCULAR HEMOGLOBIN / MEAN CORPUSCULAR HEMOGLOBIN CONCENTRATION / MEAN CORPUSCULAR VOLUME / MONOCYTE / NEUTROPHIL / NUCLEATED RED BLOOD CELLS / PLATELET COUNT: tissue Blood; for ALANINE AMINOTRANSFERASE / ALBUMIN / ALKALINE PHOSPHATASE / ASPARTATE AMINOTRANSFERASE / BLOOD UREA NITROGEN / CARBON DIOXIDE / CHLORIDE / CHOLESTEROL / CREATINE PHOSPHOKINASE / CREATININE / GLUCOSE / LACTATE DEHYDROGENASE / LIPASE / PHOSPHORUS / POTASSIUM / SODIUM / TOTAL BILIRUBIN / TOTAL PROTEIN / URIC ACID: tissue Plasma
# [1] = 30 mg/kg, 72 h, dose level Low, time 3 day
# [2] = 30 mg/kg, 120 h, dose level Low, time 5 day
# [3] = 1200 mg/kg, 72 h, dose level High, time 3 day
# [4] = 1200 mg/kg, 120 h, dose level High, time 5 day
compound,measurement,setting,value
CN(Cc1cc(Br)cc(Br)c1N)C1CCCCC1 [BROMHEXINE],ABSOLUTE BASOPHIL,[1],0 CELLS/uL
same,ABSOLUTE EOSINOPHIL,[1],52.67 CELLS/uL
same,ABSOLUTE LYMPHOCYTE,[1],13749.67 CELLS/uL
same,ABSOLUTE MONOCYTE,[1],46.33 CELLS/uL
same,ABSOLUTE SEGMENTED NEUTROPHIL,[1],484.67 CELLS/uL
same,BASOPHIL,[1],0%
same,EOSINOPHIL,[1],0.33%
same,ERYTHROCYTE COUNT,[1],5.57 x10E6/uL
same,HEMATOCRIT,[1],34.67%
same,HEMOGLOBIN,[1],13.63 G/DL
same,LEUKOCYTE COUNT,[1],14.33 x10E3/uL
same,LYMPHOCYTE,[1],96%
same,MEAN CORPUSCULAR HEMOGLOBIN,[1],24.5 pg
same,MEAN CORPUSCULAR HEMOGLOBIN CONCENTRATION,[1],39.37 G/DL
same,MEAN CORPUSCULAR VOLUME,[1],62.23 fL
same,MONOCYTE,[1],0.33%
same,NEUTROPHIL,[1],3.33%
same,NUCLEATED RED BLOOD CELLS,[1],0.33 /100WBC
same,PLATELET COUNT,[1],1277.67 x10E3/uL
same,ALANINE AMINOTRANSFERASE,[1],49 u/L
same,ALBUMIN,[1],4.13 G/DL
same,ALKALINE PHOSPHATASE,[1],406.33 u/L
same,ASPARTATE AMINOTRANSFERASE,[1],85 u/L
same,BLOOD UREA NITROGEN,[1],15 mg/dL
same,CARBON DIOXIDE,[1],23 mmol/L
same,CHLORIDE,[1],103.67 MEQ/L
same,CHOLESTEROL,[1],65.67 mg/dL
same,CREATINE PHOSPHOKINASE,[1],317.67 u/L
same,CREATININE,[1],0.18 mg/dL
same,GLUCOSE,[1],158 mg/dL
same,LACTATE DEHYDROGENASE,[1],370.33 u/L
same,LIPASE,[1],9 u/L
same,PHOSPHORUS,[1],12.77 mg/dL
same,POTASSIUM,[1],6.95 MEQ/L
same,SODIUM,[1],145.43 MEQ/L
same,TOTAL BILIRUBIN,[1],0.2 mg/dL
same,TOTAL PROTEIN,[1],5.77 G/DL
same,URIC ACID,[1],1.67 mg/dL
same,ABSOLUTE BASOPHIL,[2],0 CELLS/uL
same,ABSOLUTE EOSINOPHIL,[2],128.67 CELLS/uL
same,ABSOLUTE LYMPHOCYTE,[2],16146.33 CELLS/uL
same,ABSOLUTE MONOCYTE,[2],429 CELLS/uL
same,ABSOLUTE SEGMENTED NEUTROPHIL,[2],1529.33 CELLS/uL
same,BASOPHIL,[2],0%
same,EOSINOPHIL,[2],0.67%
same,ERYTHROCYTE COUNT,[2],5.35 x10E6/uL
same,HEMATOCRIT,[2],33.4%
same,HEMOGLOBIN,[2],13.33 G/DL
same,LEUKOCYTE COUNT,[2],18.23 x10E3/uL
same,LYMPHOCYTE,[2],88.67%
same,MEAN CORPUSCULAR HEMOGLOBIN,[2],24.97 pg
same,MEAN CORPUSCULAR HEMOGLOBIN CONCENTRATION,[2],39.9 G/DL
same,MEAN CORPUSCULAR VOLUME,[2],62.5 fL
same,MONOCYTE,[2],2.33%
same,NEUTROPHIL,[2],8.33%
same,NUCLEATED RED BLOOD CELLS,[2],0 /100WBC
same,PLATELET COUNT,[2],1294.67 x10E3/uL
same,ALANINE AMINOTRANSFERASE,[2],51.33 u/L
same,ALBUMIN,[2],4.27 G/DL
same,ALKALINE PHOSPHATASE,[2],334 u/L
same,ASPARTATE AMINOTRANSFERASE,[2],80.67 u/L
same,BLOOD UREA NITROGEN,[2],15.67 mg/dL
same,CARBON DIOXIDE,[2],24.67 mmol/L
same,CHLORIDE,[2],103.67 MEQ/L
same,CHOLESTEROL,[2],75.33 mg/dL
same,CREATINE PHOSPHOKINASE,[2],235.67 u/L
same,CREATININE,[2],0.15 mg/dL
same,GLUCOSE,[2],144.33 mg/dL
same,LACTATE DEHYDROGENASE,[2],206.67 u/L
same,LIPASE,[2],8 u/L
same,PHOSPHORUS,[2],12.53 mg/dL
same,POTASSIUM,[2],6.56 MEQ/L
same,SODIUM,[2],145.97 MEQ/L
same,TOTAL BILIRUBIN,[2],0.2 mg/dL
same,TOTAL PROTEIN,[2],5.87 G/DL
same,URIC ACID,[2],1.43 mg/dL
same,ABSOLUTE BASOPHIL,[3],0 CELLS/uL
same,ABSOLUTE EOSINOPHIL,[3],0 CELLS/uL
same,ABSOLUTE LYMPHOCYTE,[3],11402.67 CELLS/uL
same,ABSOLUTE MONOCYTE,[3],42 CELLS/uL
same,ABSOLUTE SEGMENTED NEUTROPHIL,[3],922 CELLS/uL
same,BASOPHIL,[3],0%
same,EOSINOPHIL,[3],0%
same,ERYTHROCYTE COUNT,[3],5.83 x10E6/uL
same,HEMATOCRIT,[3],36.2%
same,HEMOGLOBIN,[3],14.53 G/DL
same,LEUKOCYTE COUNT,[3],12.37 x10E3/uL
same,LYMPHOCYTE,[3],92.33%
same,MEAN CORPUSCULAR HEMOGLOBIN,[3],24.93 pg
same,MEAN CORPUSCULAR HEMOGLOBIN CONCENTRATION,[3],40.13 G/DL
same,MEAN CORPUSCULAR VOLUME,[3],62.07 fL
same,MONOCYTE,[3],0.33%
same,NEUTROPHIL,[3],7.33%
same,NUCLEATED RED BLOOD CELLS,[3],0 /100WBC
same,PLATELET COUNT,[3],1700.33 x10E3/uL
same,ALANINE AMINOTRANSFERASE,[3],65.67 u/L
same,ALBUMIN,[3],4.33 G/DL
same,ALKALINE PHOSPHATASE,[3],494.33 u/L
same,ASPARTATE AMINOTRANSFERASE,[3],82.67 u/L
same,BLOOD UREA NITROGEN,[3],12 mg/dL
same,CARBON DIOXIDE,[3],21.33 mmol/L
same,CHLORIDE,[3],102.5 MEQ/L
same,CHOLESTEROL,[3],83.67 mg/dL
same,CREATINE PHOSPHOKINASE,[3],249.33 u/L
same,CREATININE,[3],0.17 mg/dL
same,GLUCOSE,[3],162.67 mg/dL
same,LACTATE DEHYDROGENASE,[3],125.67 u/L
same,LIPASE,[3],13 u/L
same,PHOSPHORUS,[3],12.63 mg/dL
same,POTASSIUM,[3],5.48 MEQ/L
same,SODIUM,[3],143.2 MEQ/L
same,TOTAL BILIRUBIN,[3],0.17 mg/dL
same,TOTAL PROTEIN,[3],5.8 G/DL
same,URIC ACID,[3],1.93 mg/dL
same,ABSOLUTE BASOPHIL,[4],0 CELLS/uL
same,ABSOLUTE EOSINOPHIL,[4],0 CELLS/uL
same,ABSOLUTE LYMPHOCYTE,[4],22503 CELLS/uL
same,ABSOLUTE MONOCYTE,[4],323.33 CELLS/uL
same,ABSOLUTE SEGMENTED NEUTROPHIL,[4],1973.67 CELLS/uL
same,BASOPHIL,[4],0%
same,EOSINOPHIL,[4],0%
same,ERYTHROCYTE COUNT,[4],6.56 x10E6/uL
same,HEMATOCRIT,[4],39.57%
same,HEMOGLOBIN,[4],16.23 G/DL
same,LEUKOCYTE COUNT,[4],24.8 x10E3/uL
same,LYMPHOCYTE,[4],90%
same,MEAN CORPUSCULAR HEMOGLOBIN,[4],24.77 pg
same,MEAN CORPUSCULAR HEMOGLOBIN CONCENTRATION,[4],41.07 G/DL
same,MEAN CORPUSCULAR VOLUME,[4],60.37 fL
same,MONOCYTE,[4],1.33%
same,NEUTROPHIL,[4],8.67%
same,NUCLEATED RED BLOOD CELLS,[4],0 /100WBC
same,PLATELET COUNT,[4],1311.67 x10E3/uL
same,ALANINE AMINOTRANSFERASE,[4],66.67 u/L
same,ALBUMIN,[4],4.5 G/DL
same,ALKALINE PHOSPHATASE,[4],440.33 u/L
same,ASPARTATE AMINOTRANSFERASE,[4],86 u/L
same,BLOOD UREA NITROGEN,[4],19.67 mg/dL
same,CARBON DIOXIDE,[4],25 mmol/L
same,CHLORIDE,[4],102 MEQ/L
same,CHOLESTEROL,[4],90.67 mg/dL
same,CREATINE PHOSPHOKINASE,[4],343.67 u/L
same,CREATININE,[4],0.2 mg/dL
same,GLUCOSE,[4],132 mg/dL
same,LACTATE DEHYDROGENASE,[4],171.33 u/L
same,LIPASE,[4],9.33 u/L
same,PHOSPHORUS,[4],11.03 mg/dL
same,POTASSIUM,[4],6.65 MEQ/L
same,SODIUM,[4],144.3 MEQ/L
same,TOTAL BILIRUBIN,[4],0.17 mg/dL
same,TOTAL PROTEIN,[4],6.17 G/DL
same,URIC ACID,[4],1.33 mg/dL
